From patent EP4755885A1 (Shanghai Hansoh Biomedical Co., Ltd., priority 2023, dated 2025)
Each block holds one compound with its values, some of them ahead of it.

Legend:
human GLP-1 receptor [1] = target: T1, human GLP-1 receptor (Homo sapiens, UniProt P43220); assay: cAMP production in cell line stably transformed with human GLP1 receptor, 30 min co-incubation (HTRF); format: cell-based; conditions: CHO-K1/GLP-1R/CRE-luc cells, stimulation for 0.5 h, read-out: EC50
T1 construct: expressed in transfected cells
T1 sequence (P43220 24-463): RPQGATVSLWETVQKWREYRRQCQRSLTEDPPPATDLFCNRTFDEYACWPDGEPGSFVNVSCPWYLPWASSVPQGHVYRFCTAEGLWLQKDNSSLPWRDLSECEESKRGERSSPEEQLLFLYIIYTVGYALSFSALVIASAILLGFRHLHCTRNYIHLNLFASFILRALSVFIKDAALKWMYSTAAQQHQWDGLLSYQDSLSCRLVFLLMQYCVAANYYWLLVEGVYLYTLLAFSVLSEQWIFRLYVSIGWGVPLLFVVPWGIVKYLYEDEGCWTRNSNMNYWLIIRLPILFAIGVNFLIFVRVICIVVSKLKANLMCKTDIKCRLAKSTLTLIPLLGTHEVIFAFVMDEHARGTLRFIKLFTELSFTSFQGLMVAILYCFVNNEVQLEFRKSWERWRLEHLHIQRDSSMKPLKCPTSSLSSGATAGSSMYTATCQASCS
Method: (§1) The purpose of this assay example is to test the ability of the compound to activate the human GLP-1 receptor on cell surface. The EC50 for stimulated cAMP production after activation characterizes the ability of the compound to activate the human GLP-1 receptor.
In this experiment, the compound and cells were co-incubated for 30 min.
(§2) Frozen cell line CHO-K1/GLP-1R/CRE-luc stably transformed with human GLP1 receptor was removed from a liquid nitrogen tank, and was placed in a 37°C water bath for rapid thawing. The cells were resuspended in DMEM/F12 medium, and after centrifugation, were washed once. The cells were resuspended in an experimental buffer, i.e., DMEM/F12 medium containing 0.1% casein. After centrifugation, cell density was adjusted using the experimental buffer. The cells were plated onto a 384-well plate at a density of 1500 cells/5 µL/well. Then, each well was added with 2.5 µL of IBMX working solution prepared with the buffer, the final concentration of IBMX being 0.5 mM, and 2.5 µL of a serially diluted compound sample (starting from […], 3-fold dilution, 12 concentrations). The plate was centrifuged at 1000 rpm for 1 min, and was stood for incubation at 37°C for 0.5 h. Determination was performed using the Cisbio cAMP - Gs Dynamic kit. cAMP-d2 and anti-cAMP-Eu3+-Cryptate were diluted 18-fold and 20-fold respectively with cAMP Lysis & Detection Buffer, and were respectively mixed homogeneously. Each well was added with 5 µL of diluted cAMP-d2 solution, and the plate was centrifuged at 1000 rpm for 1 min, and shaken for 30 seconds for homogeneous mixing. Then, each well was added with 5 µL of diluted anti-cAMP-Eu3+-Cryptate solution, and the plate was centrifuged at 1000 rpm for 1 min and was incubated in the dark at room temperature for 1 h. HTRF signals were read using the Biotek Synergy H1 microplate reader, the excitation wavelength being 320 nm and the emission wavelengths being 620 nm and 665 nm.
(§3) The signal-to-signal ratio was calculated (665 nm/620 nm * 10,000). Nonlinear fitting between the signal-to-signal ratio and the sample concentration was performed in GraphPad Prism 10 using a four-parameter equation to obtain the EC50 value.

[2] = Pharmacokinetic evaluation in mice, oral administration; format: in vivo, Balb/c mice; conditions: p.o. 5 mg/kg, plasma; for AUC(0-inf) / AUC(0-t) / Cmax / Tmax / MRT inf: mouse, in vivo, po; for MRT inf: read-out: MRT 0-∞
Method: Balb/c mice were used as test animals to study the pharmacokinetic behavior of the compound of the present invention in mice (plasma) at a dose of 5 mg/kg administered orally and 1 mg/kg administered intravenously.
Balb/c mice, 3 per group, male.
(§4) Preparation of drug for oral administration: 10%PEG400/10%PG/80% glycine buffer (100 mM glycine, 64 Mm NaOH, […]) buffer.
10 ml of PEG400, 10 ml of PG, and 80 ml of (100 mM glycine, 64 Mm NaOH, pH = 9) were measured into a 100 ml volumetric flask, vortexed, mixed homogeneously, and sonicated to obtain a clear solution.
Single PK: An example compound was weighed into a 4 mL glass bottle. The solution was added, and sonication was performed for 10 min to obtain a colorless clear solution having a concentration of 0.5 mg/mL.
The solution was added, and sonication was performed for 10 min to obtain a colorless clear solution having a concentration of 0.5 mg/mL.
Three Balb/c mice, male, respectively administered p.o. after fasting overnight, at a dose of 5 mg/kg and in an administration volume of 10 mL/kg.
The blood samples were placed in EDTA-K2 anticoagulant tubes and centrifuged at 6000 rpm at 4°C for 6 min to separate plasma, which was stored at -80°C. The mice were fed 4 h after administration.
(§5) • 1) 40 µL of a plasma sample was added with 160 µL of acetonitrile for precipitation, and after mixing, the mixture was centrifuged at 3500 × g for 5 to 20 min. • 2) The supernatant solution after treatment was taken for LC/MS/MS analysis of the concentration of the test compound. The LC/MS/MS analysis instrument was AB Sciex API 4000 Qtrap.
• Liquid phase condition: Shimadzu LC-20AD pump • Chromatographic column: Agilent ZORBAX XDB-C18 (50×2.1 mm, 3.5 µm) Mobile phase: Solution A was 0.1% formic acid aqueous solution, and Solution B was acetonitrile • Flow rate: 0.4 mL/min • Elution time: 0-4.0 min, the eluent was as follows:
Main pharmacokinetic parameters were calculated using WinNonlin 6.1.

human GLP-1 receptor [3] = target: T1, human GLP-1 receptor; assay: cAMP production in cell line stably transformed with human GLP1 receptor, 2 h co-incubation (HTRF); format: cell-based; conditions: CHO-K1/GLP-1R/CRE-luc cells, stimulation for 2 h, read-out: EC50
Method: as §1
In this experiment, the compound and cells were co-incubated for 2 h.
as §2, with “for 2” for “for 0.5”
as §3

[4] = Pharmacokinetic evaluation in beagles, oral administration; format: in vivo; conditions: dog, po, p.o. 2 mg/kg, plasma
Method: Beagles were used as test animals to study the pharmacokinetic behavior of the compound of the present invention, administered orally at a dose of 2 mg/kg, in beagles (plasma).
Beagles, 3 per group, male.
as §4
Single PK: The compound of the present invention was weighed into a 100 mL glass bottle, and the solution was added. The pH was first adjusted with 1 M NaOH until the compound dissolves to obtain a clear solution, and then the pH was readjusted to pH 9.0-9.5 with 1 M HCl. Sonication was performed for 10 min to obtain a colorless clear solution having a concentration of 0.4 mg/mL.
Three beagles, male, respectively administered p.o. after fasting overnight, at a dose of 2 mg/kg and in an administration volume of 5 mL/kg.
Blood collection: 0.3 mL of blood was collected from the forelimb vein of the beagles before administration and at 0.25, 0.5, 1, 2, 4, 6, 8, and 24 h after administration. The blood samples were placed in EDTA-K2 anticoagulant tubes and centrifuged at 6000 rpm at 4°C for 6 min to separate plasma, which was stored at -80°C. The beagles were fed 4 h after administration.
as §5
• Liquid phase condition: Shimadzu LC-20AD pump • Chromatographic column: Agilent ZORBAX XDB-C18 (50×2.1 mm, 3.5 µm) Mobile phase: Solution A was 0.1% formic acid aqueous solution, and Solution B was acetonitrile • Flow rate: 0.4 mL/min • Elution time: 0-4.0 min, the eluent was as follows: […]

[5] = not marked single PK (cassette PK)

Structure (SMILES): Cc1cc(-n2nc3c(c2-n2ccn(-c4ccc(N=S(C)(C)=O)cc4F)c2=O)[C@H](C)N(C(=O)c2cc4cc([C@H]5CCOC(C)(C)C5)ccc4n2[C@@]2(c4noc(=O)[nH]4)C[C@@H]2C)CC3)cc(C)c1F [Example 1]
- EC50 (human GLP-1 receptor [1]): 0.37 nM

Structure (SMILES): Cc1cc(-n2nc3c(c2-n2ccn(-c4ccc(CC(=O)N(C)C)cc4F)c2=O)[C@H](C)N(C(=O)c2cc4cc([C@H]5CCOC(C)(C)C5)ccc4n2[C@@]2(c4noc(=O)[nH]4)C[C@@H]2C)CC3)cc(C)c1F [Example 7]
- AUC(0-inf) [2, 5]: 10800 ng·h/mL
- AUC(0-t) [2, 5]: 10300 ng·h/mL
- Cmax [2, 5]: 2970 ng/mL
- Tmax [2, 5]: 0.5 h
- MRT inf [2, 5]: 2.8 h
- tl/2 [2, 5]: 1.6 h
- EC50 (human GLP-1 receptor [1]): 0.3 nM

Structure (SMILES): Cc1cc(-n2nc3c(c2-n2ccn(-c4ccc5c(c4)CCc4nnc(C)n4-5)c2=O)[C@H](C)N(C(=O)c2cc4cc([C@H]5CCOC(C)(C)C5)ccc4n2[C@@]2(c4noc(=O)[nH]4)C[C@@H]2C)CC3)cc(C)c1F [Example 8]
- EC50 (human GLP-1 receptor [1]): 0.51 nM

Structure (SMILES): Cc1cc(-n2nc3c(c2-n2ccn(-c4ccc5c(c4F)C4(CC4)C(=O)N5C)c2=O)[C@H](C)N(C(=O)c2cc4cc([C@H]5CCOC(C)(C)C5)ccc4n2[C@@]2(c4noc(=O)[nH]4)C[C@@H]2C)CC3)cc(C)c1F [Example 15]
- EC50 (human GLP-1 receptor [1]): 0.32 nM

Structure (SMILES): Cc1cc(-n2nc3c(c2-n2ccn(-c4ccc5c(c4)OCc4nnc(C)n4-5)c2=O)[C@H](C)N(C(=O)c2cc4cc([C@H]5CCOC(C)(C)C5)ccc4n2[C@@]2(c4noc(=O)[nH]4)C[C@@H]2C)CC3)cc(C)c1F [Example 19]
- EC50 (human GLP-1 receptor [1]): 0.88 nM

Structure (SMILES): Cc1cc(-n2nc3c(c2-n2ccn(-c4cc5c6c(c4)OCC(=O)N6CCC5)c2=O)[C@H](C)N(C(=O)c2cc4cc([C@H]5CCOC(C)(C)C5)ccc4n2[C@@]2(c4noc(=O)[nH]4)C[C@@H]2C)CC3)cc(C)c1F [Example 41]
- EC50 (human GLP-1 receptor [1]): 0.9 nM

Structure (SMILES): [2H]C([2H])([2H])N1C(=O)C2CC2c2cc(-n3ccn(-c4c5c(nn4-c4cc(C)c(F)c(C)c4)CCN(C(=O)c4cc6cc([C@H]7CCOC(C)(C)C7)ccc6n4[C@@]4(c6noc(=O)[nH]6)C[C@@H]4C)[C@H]5C)c3=O)ccc21 (stereo partly drawn) [Example 61]
- EC50 (human GLP-1 receptor [1]): 1.39 nM

Structure (SMILES): [2H]C([2H])([2H])N1C(=O)C2(CC2)c2cc(-n3ccn(-c4c5c(nn4-c4cc(C)c(C#N)c(C)c4)CCN(C(=O)c4cc6cc([C@H]7CCOC(C)(C)C7)ccc6n4[C@@]4(c6noc(=O)[nH]6)C[C@@H]4C)[C@H]5C)c3=O)ccc21 [Example 162]
- EC50 (human GLP-1 receptor [3]): 0.1 nM
- EC50 (human GLP-1 receptor [1]): 0.25 nM

Structure (SMILES): [2H]C([2H])([2H])n1nc2c3c(c(-n4ccn(-c5c6c(nn5-c5cc(C)c(F)c(C)c5)CCN(C(=O)c5cc7cc([C@H]8CCOC(C)(C)C8)ccc7n5[C@@]5(c7noc(=O)[nH]7)C[C@@H]5C#C)[C@H]6C)c4=O)ccc31)OCCC2 [Example 287, 3-((1S,2R)-1-(5-((S)-2,2-dimethyltetrahydro-2H-pyran-4-yl)-2-((S)-2-(4-fluoro-3,5-dimethylphenyl)-4-methyl-3-(3-(2-(methyl-d3)-2,7,8,9-tetrahydrooxaheptano[4,3,2-cd]indazol-5-yl)-2-carbonyl-2,3-dihydro-1H-imidazol-1-yl)-4,5,6,7-tetrahydro-2H-pyrazolo[4,3-c]pyridine-5-carbonyl)-1H-indol-1-yl)-2-ethynylcyclopropyl)-1,2,4-oxadiazol-5(4H)-one]
- AUC(0-inf) ([2]; single PK): 28000 ng·h/mL
- AUC(0-t) ([2]; single PK): 27900 ng·h/mL
- Cmax ([2]; single PK): 5320 ng/mL
- Tmax ([2]; single PK): 1 h
- MRT inf ([2]; single PK): 4.2 h
- tl/2 ([2]; single PK): 3.0 h
- EC50 (human GLP-1 receptor [1]): 0.9 nM
- AUC(0-inf) [4]: 17200 ng·h/mL
- AUC(0-t) at 24 h [4]: 17000 ng·h/mL
- half-life [4]: 3.7 h
- Cmax ([4]; read-out: Cmax): 1880 ng/mL
- MRT inf ([4]; read-out: MRT 0-∞): 6.1 h
- Tmax ([4]; read-out: tmax): 2.3 h

Structure (SMILES): Cc1cc(-n2nc3c(c2-n2ccn(-c4ccc5c(c4F)CCc4nnc(C)n4-5)c2=O)[C@H](C)N(C(=O)c2cc4cc([C@H]5CCOC(C)(C)C5)ccc4n2[C@@]2(c4noc(=O)[nH]4)C[C@@H]2C)CC3)cc(C)c1F [Example 339]
- EC50 (human GLP-1 receptor [1]): 0.51 nM

- EC50 (human GLP-1 receptor [1]): 1.5 nM
Structure (SMILES): Cc1cc(-n2nc3c(c2-n2ccn(-c4ccc5c(c4)CCc4nnnn4-5)c2=O)[C@H](C)N(C(=O)c2cc4cc([C@H]5CCOC(C)(C)C5)ccc4n2[C@@]2(c4noc(=O)[nH]4)C[C@@H]2C)CC3)cc(C)c1F [Example 342]
